These results are taken from patent publication US6706740B2, “Fungicidal heterocyclic aromatic amides and their compositions, methods of use and preparation” (Dow AgroSciences LLC, priority 1999, dated 2004).

Test [1] relates to Phytophthora infestans—PHYTIN. Description: whole plant or invertebrate. The format is in vivo. Conditions: Phytophthora, in Solanum lycopersicum, 24 h, read-out: PHYTIN in vivo 1 Day Protectant.
The test system of test [2] is Stagonospora nodorum (Leptosphaeria nodorum—LEPTNO). Description: In vitro fungal growth inhibition, Stagonospora nodorum (LEPTNO). Format: cell-based. Conditions: Leptosphaeria, read-out: LEPTNO in vitro Growth Inhibition.
Test [3] has as its system Magnaporthe grisea (Pyricularia oryzae—PYRIOR). Description: microbe, parasite or virus in culture. Format: cell-based. The conditions noted are these: Pyricularia oryzae, read-out: PYRIOR in vitro Growth Inhibition.
The test system of test [4] is Mycosphaerella graminicola (Septoria tritici—SEPTTR). Description: In vitro fungal growth inhibition, Mycosphaerella graminicola (SEPTTR). The format is cell-based. The conditions noted are these: Zymoseptoria tritici, read-out: SEPTTR in vitro Growth Inhibition.
In test [5] the test system is Septoria tritici—SEPTTR. Description: Leaf Blotch of Wheat, in vivo whole plant, 24 Hour Protectant. Conditions: for pest or weed control at 100 ppm: Zymoseptoria tritici, 24 h, read-out: SEPTTR in vivo 1 Day Protectant.
In test [6] the test system is Leptosphaeria nodorum—LEPTNO. Description: Glume Blotch of Wheat, in vivo whole plant, 24 Hour Protectant. The conditions noted are these: for pest or weed control at 100 ppm: Leptosphaeria, read-out: LEPTNO in vivo 1 Day Protectant.
The test system of test [7] is Rhizoctonia solani (RHIZSO). Description: microbe, parasite or virus in culture. Conditions: Rhizoctonia solani, read-out: RHIZSO in vitro Growth Inhibition. Format: cell-based.
Test [8] relates to Phytophthora infestans (PHYTIN). Description: microbe, parasite or virus in culture. Format: cell-based. Conditions: Phytophthora infestans, read-out: PHYTIN in vitro Growth Inhibition.
The test system of test [9] is Ustilago maydis (USTIMA). Description: microbe, parasite or virus in culture. The format is cell-based. Conditions: Mycosarcoma maydis, read-out: USTIMA in vitro Growth Inhibition.
Test [10] relates to Puccinia recondita—PUCCRT. Description: Brown Rust of Wheat, in vivo whole plant, 24 Hour Protectant. The conditions noted are these: Puccinia, read-out: PUCCRT in vivo 1 Day Protectant.
For test [11], the system named is Erysiphe graminis—ERYSGT. Description: Powdery Mildew of Wheat, in vivo whole plant, 24 Hour Protectant. Conditions: Erysiphe, read-out: ERYSGT in vivo 1 Day Protectant.
Where [12] appears, read: 100 ppm spray, wheat, 24 hour protectant, control of fungal infection vs untreated plants.
Setting [13] is: 100 ppm spray, 24 hour protectant, wheat, control of fungal infection vs untreated plants.
The mark [14] stands for this setting: 100 ppm spray, wheat, 24 hour protectant, % control of fungal infection vs untreated plants.
The mark [15] stands for this setting: wheat plants sprayed at 100 ppm, inoculated after 24 hours, control of fungal infection vs untreated plants.

Where two headings read alike, the source gives them in different places.

Consider `COc1ccnc(C(=O)Nc2ccc(OCc3ccc(C(F)(F)F)cc3)cc2)c1O` [Compound 448], for which the pest or weed control at 100 ppm in [1] was less than 25%; in test [5] (setting [12]), 25 to 74%; in test [10] (setting [12]), 25 to 74%; in [11] (setting [12]), less than 25%. Also, the inhibition (in general, the share of the control response that was lost under treatment) at 25 ppm in [2] (25 ppm in growth medium) was less than 80%; in test [3], less than 80%; in test [4] (25 ppm in growth medium), less than 80%; in test [7], less than 80%; in test [8] it was less than 80%; in test [9], greater than 80%. Besides, the “LEPTNO in vivo 1 Day Protectant” value in [6] (setting [12]) is listed as “+ +”.
With `COc1ccnc(C(=O)Nc2ccc(Oc3cccc(C(F)(F)F)c3)cc2)c1O` [Compound 424], the pest or weed control at 100 ppm in test [1], in test [5] (setting [12]), in test [6] (setting [12]), in test [10] (setting [12]) and in test [11] (setting [12]) was 25 to 74% each time. Further, the inhibition at 25 ppm in [2] (25 ppm in growth medium) was greater than 80%; in test [3], less than 80%; in test [4] (25 ppm in growth medium), less than 80%; in test [7], less than 80%; in [8], less than 80%; in [9], less than 80%.
As to `COc1ccnc(C(=O)Nc2ccc(C(=O)Nc3cccc(C(F)(F)F)c3)cc2)c1O` [Compound 449], the pest or weed control at 100 ppm in [1] is less than 25%; in test [5] (setting [12]), 25 to 74%; in [6] (setting [12]), 25 to 74%; in test [10] (setting [12]), less than 25%; in test [11] (setting [12]), less than 25%. In addition, the inhibition at 25 ppm was less than 80% in test [2] (25 ppm in growth medium); greater than 80% in [3]; less than 80% in test [4] (25 ppm in growth medium); greater than 80% in test [7]; less than 80% in test [8]; less than 80% in test [9].
Turning to `COc1ccnc(C(=O)Nc2ccc(C(=O)c3cccc(C(F)(F)F)c3)cc2)c1O` [Compound 405], the pest or weed control at 100 ppm in test [1] was less than 25%; in test [5] (setting [12]) it was less than 25%; in [6] (setting [12]) it was 25 to 74%; in [10] (setting [12]), less than 25%; in test [11] (setting [12]), less than 25%. In addition, the inhibition at 25 ppm was greater than 80% in [2] (25 ppm in growth medium); less than 80% in test [3]; less than 80% in test [4] (25 ppm in growth medium); less than 80% in [7]; less than 80% in [8]; less than 80% in test [9].
With `COc1ccnc(C(=O)NC2CC(C)(C)C(OC(=O)CC(C)C)C(C)(C)C2)c1O` (stereo not shown) [Compound 267], the pest or weed control at 100 ppm is less than 25% in test [1]; less than 25% in test [5] (setting [13]); 25 to 74% in test [6] (setting [13]); 25 to 74% in test [10] (setting [13]); less than 25% in [11] (setting [13]). Further, the inhibition at 25 ppm in [2] (25 ppm in growth medium) was greater than 80%; in [3], less than 80%; in test [4] (25 ppm in growth medium), less than 80%; in test [7] it was less than 80%; in [8], greater than 80%; in test [9], greater than 80%.
Regarding `COc1ccnc(C(=O)NC2CC(C)(C)C(Oc3cc(C(F)(F)F)cc(C(F)(F)F)n3)C(C)(C)C2)c1O` (stereo not shown) [Compound 272], the pest or weed control at 100 ppm was less than 25% in [1], 25 to 74% in [6] (setting [13]), less than 25% in test [10] (setting [13]) and less than 25% in [11] (setting [13]). The inhibition at 25 ppm in test [2] (25 ppm in growth medium) is less than 80%; in test [3], less than 80%; in test [4] (25 ppm in growth medium) it was greater than 80%; in test [7], less than 80%; in test [8], less than 80%; in test [9], less than 80%. Also, the “SEPTTR in vivo 1 Day Protectant” value in [5] (setting [13]) is given as “+ +”.
On to `COc1ccnc(C(=O)NC2COC(C)C2)c1O` (stereo not shown) [Compound 310], for which the pest or weed control at 100 ppm is less than 25% in test [1]; less than 25% in [5] (setting [13]); less than 25% in test [6] (setting [13]); less than 25% in test [10] (setting [13]); 25 to 74% in test [11] (setting [13]). Besides, the inhibition at 25 ppm in [2] (25 ppm in growth medium), in [3], in [4] (25 ppm in growth medium), in test [7], in test [8] and in test [9] was less than 80% in each case.
Take `COc1ccnc(C(=O)Nc2ccc(Oc3ccccc3C)cc2)c1O` [Compound 415]: the pest or weed control at 100 ppm in test [1] is less than 25%; in [5] (setting [12]) it was less than 25%; in test [6] (setting [12]), less than 25%; in [10] (setting [12]), 25 to 74%; in [11] (setting [12]) it was 25 to 74%. For the same compound, the inhibition at 25 ppm is less than 80% in test [2] (25 ppm in growth medium); less than 80% in test [3]; greater than 80% in test [4] (25 ppm in growth medium); less than 80% in test [7]; less than 80% in [8]; less than 80% in [9].
Turning to `COCCC(=O)Oc1c(OC)ccnc1C(=O)Nc1ccc(C(=O)Oc2cccc(C(F)(F)F)c2)cc1` [Compound 716], the pest or weed control at 100 ppm in test [1] is less than 25%; in [5] (setting [14]), 25 to 74%; in [6] (setting [14]), 25 to 74%; in test [10] (setting [14]), 25 to 74%; in test [11] (setting [14]), less than 25%. The inhibition at 25 ppm in test [2] (25 ppm in growth medium), in test [3], in [4] (25 ppm in growth medium), in test [7], in [8] and in test [9] was less than 80% each time.
As for `CCCCCc1ccc(C(C)NC(=O)c2nc(Br)ccc2O)cc1` (stereo not shown) [Compound 489], the pest or weed control at 100 ppm in test [1] was less than 25%; in test [5] (setting [15]), less than 25%; in test [6] (setting [15]) it was less than 25%; in test [10] (setting [15]), 25 to 74%; in test [11] (setting [15]), less than 25%. Further, the inhibition at 25 ppm in test [2] (25 ppm in the growth medium), in test [3], in test [4] (25 ppm in the growth medium), in [7], in test [8] and in [9] was less than 80% each time.
`COc1ccnc(C(=O)N[C@H]2O[C@@H](C)[C@@H](OC(C)=O)[C@@H](OC(C)=O)[C@@H]2OC(C)=O)c1O` [Compound 333]: the pest or weed control at 100 ppm in test [1] is less than 25%; in test [5] (setting [12]), 25 to 74%; in test [6] (setting [12]) it was 25 to 74%; in test [10] (setting [12]), 25 to 74%; in [11] (setting [12]), less than 25%. For the same compound, the inhibition at 25 ppm in [2] (25 ppm in growth medium), in test [3], in test [4] (25 ppm in growth medium), in test [7], in [8] and in [9] was less than 80% throughout.
